Ends that are not written are not given here. Peptide text beside a SMILES is read from it. * marks the point of attachment. X1 = CC(C)C[C@@H](CN[C@@H](CCCNC(=N)N)C(=O)N[C@@H](Cc1ccccc1)C(N)=O)N*
What was measured:
[1] = target: receptor preparation (membrane fraction of Ascaris suum body wall muscle), AF2 binding sites; assay: Displacement of radioactive AF2 ([125I]AF2) in a receptor binding assay
Protocol: Adult female Ascaris suum, swine intestinal parasites, are collected in an abattoir after their removal from the intestine using pressurized water. Healthy specimens over 25 cm are selected, rinsed and placed in Ascaris Ringer's Solution (ARS: 4 mM NaCl, 5.9 mM CaCl2, 4.9 mM MgCl2, 5 mM Tris (C4 H11 NO3), 125 mM NaC2 H3 O2, 24.5 mM KCl, pH=7.4) at 37° C. Specimens are placed in a thermos filled with 37C Ascaris Ringer's solution and immediately air shipped to our laboratory. Upon arrival they are placed in fresh ARS (changed daily) and maintained at 37° C. for up to 3-4 days prior to use.
Ascaris suum body wall tissue (muscle) is dissected out by pinning each specimen in a dissection tray, opening the worm along its entire length at the lateral line with a scalpel, removing the intestine and ovaries and then scraping the muscle from the cuticle. One worm yields approximately 1.0 g tissue. Tissue collected is flash frozen in liquid nitrogen and stored at -80° C. until needed.
Membrane suspension for the binding assay is prepared as follows. […]
Each replicate is one well of a standard 96-well plate and has a volume of 200 μl containing 15 ug protein (preparation described above). […] The plate is shaken on a rotary shaker for 2 hours and then counted on a Top Count® scintillation counter. […]

[2] = tested on: A. suum muscle strips; settings: cited from earlier work; for Threshold Concentration (ND class): highest concentration 10 μM; for Threshold Concentration: lowest tested concentration that detectably altered tension and/or contractile activity in at least half the strips
[3] = tested on: innervated Ascaris suum muscle preparation; assay: Potency evaluation bioassay: muscle tension and contractile frequency of innervated Ascaris suum muscle preparation; settings: for Tension: 1 nM peptide, mean
Protocol: AF2 and iodinated AF2 were evaluated in a bioassay using an innervated Ascaris suum muscle preparation and potency was estimated by measuring the physiological effects of the peptides on A. suum muscle tension and contractile frequency.
An adult female was bisected transversely just anterior to the oviduct. A 2 cm segment was obtained anterior from the initial cut and that section was placed immediately under 37° C. medium in a dissection chamber. Two muscle strips were then prepared from each segment. Strips were prepared by cutting the segment longitudinally along one lateral line, removing the gut and then severing the opposite lateral line. Steel wires, 4 cm long, 0.25 mm diameter, with terminal sharpened hooks, were inserted through the muscle strip approximately 3 mm and centered from each end. These hooks were used to suspend the muscle strip between an isometric force transducer and a stationary holdfast in a 37° C. water jacketed incubation chamber filled with suppressive Ascaris Ringer's Solution constantly bubbled with N2. The transducer was connected to a Gould chart recorder via a Gould Universal amplifier.
The muscle tension on each preparation was "normalized" to zero five minutes before the addition of a test compound or vehicle. Compounds or vehicles were introduced from stock solutions and assayed at a final concentration of 1 nM in replicate (n=6). […] Inhibition is manifested as a drop in baseline tension (compared to control), while excitation is defined as a marked rise in baseline tension, often superimposed with transient muscle contractions (spiking). In order to estimate the net change in muscle tension of these preparations, the midpoint of the spike was estimated visually. Muscle tension data were analyzed by analysis of variance.

[4] = tested on: Ascaris suum tissues; settings: tritium on leucine moiety; cited from earlier work

Row | Molecule | Threshold Concentration (ND class) [2] | Threshold Concentration [2] | further results
1 | CC(C)C[C@@H](CN[C@@H](CCCNC(=N)N)C(=O)N[C@@H](Cc1ccccc1)C(N)=O)NC(=O)[C@H](Cc1ccc(O)cc1)NC(=O)[C@H](CCC(=O)O)NC(=O)[C@H](Cc1c[nH]cn1)NC(=O)[C@@H](N)CCCCN [KHEYL*RFamide (reduced bond), KHEYL*RFamide] (H-KHEY-X1) |  |  | IC50 ([1]; displacement of radioactive AF2): 20 nM
2 | ANEFIRF-NH2 | ND ("ND" means no detectable effect at 10 μM) |  | 
3 | FIRFamide | ND ("ND" means no detectable effect at 10 μM) |  | 
4 | KAEFIRF-NH2 | ND ("ND" means no detectable effect at 10 μM) |  | 
5 | KNAFIRF-NH2 |  | 0.1 µM | 
6 | KNEAIRF-NH2 |  | 3.2 µM | 
7 | KNEFARF-NH2 |  | 10 µM | 
8 | KNEFIAF-NH2 |  | 10 µM | 
9 | KNEFIRA-NH2 | ND ("ND" means no detectable effect at 10 μM) |  | 
10 | KNEYIRF-NH2 |  | 3.2 µM | 
11 | Lys-His-Glu-Tyr^--I -Leu-Arg-Phe-amide [Iodo AF2] |  |  | type of response of muscle tension ([3]; 1 nM): biphasic responses (short term inhibition followed by long term excitation); Tension ([3]; 5 min after peptide addition): -430 mg; Tension ([3]; 15 min after peptide addition): -403 mg; Tension ([3]; 30 min after peptide addition): -237 mg; Tension ([3]; 60 min after peptide addition): -437 mg; Spike amplitude ([3]; 1 nM, FIG. 1): significant increase; specific binding ([1]; radioligand in current embodiment of binding assay): > 80%
12 | NEFIRF-NH2 | ND ("ND" means no detectable effect at 10 μM) |  | 
13 | [^3 H]PF1: PF1 (Ser-Asp-Pro-Asn-Phe-Leu-Arg-Phe-NH2 ; SDPNFLRFamide) radiolabelled by exchanging a tritium atom for a hydrogen on the leucine moiety (SDPNFLRF-NH2; also: tritium label on Leu6) |  |  | specific binding [4]: 40%

Reference: US5859188A, “Method for discovering novel anthelmintic compounds” (priority 1997, dated 1999)
